Values after ≈ are worked out from the molar mass of the structure shown. A value given as a limit tells only on which side of the number the result lay.

As a reminder, the IC50 is the concentration at which inhibition is half-maximal. Read a high IC50 as weaker potency in that assay. Usually solubility stands for the dissolved amount per volume that the medium holds. Higher therefore signals a readily soluble substance.

The subject of one series is MCF7-Tead cell line. Nature of the series: TEAD reporter assay. In kind it is cell-based. The following applies: MCF7-Tead cells, luciferase activity after 24 hours. The protocol:
(§1) MCF7-Tead cell line was obtained from BPS BIOSCIENCE (catalog number 60618) and was maintained in DMEM containing 10% fetal calf serum, 2 mM glutamine, and 400 μg/ml G418. Cells were grown in a humidified incubator at 37° C. with 5% CO2. Cells were distributed to flat bottom white polystyrene TC treated 384 well plates at a density of 3,500 cells/well in 30 uL. Cells were incubated for 24 hours at 37° C. with 5% CO2. Cells were acoustically dosed using an Echo 555, with compounds serially diluted in 100% DMSO. Plates were incubated for an additional 24 hours. Cells were examined for luciferase activity through the addition of 30 μL Bright-Glo luciferase (Promega catalog number E2620). Plates were incubated for 10 minutes at room temperature and luminescence was read using Tecan plate reader. The data obtained with each compound was exported to […] software to perform curve fitting analysis.
On the technique in general: In a reporter assay the amount or activity of a reporter protein is the signal.

The test system of series [1] is MCF7-Luciferase cell line. As to the kind of experiment: Control reporter (MCF7-Luciferase). In kind it is cell-based. The conditions noted are these: MCF7-Luciferase cells, luciferase activity after 24 hours. The protocol:
(iii) Control Reporter (MCF7-Luciferase)
as §1, with “MCF7-Luciferase” for “MCF7-Tead”, “BPS BIOSCIENCE” left out, “SC050-L)” for “60618)”, “glutamine.” for “glutamine, and 400 μg/ml G418.”, “μL.” for “uL.”

The target of a further series is TEAD4(217-434) (Homo sapiens (Human), UniProt Q15561). Nature of the series: TEAD4 FRET. It is filed as binding. The following applies: depalmitoylated, biotinylated TEAD4(217-434), FAM labelled Probe A, 120 min at 25° C. Here is the method:
Compounds were dosed with a final DMSO concentration of 1% (v/v). Compound IC50 values were assessed following a 10-point, half-log10 dilution schema starting at 100 μM compound concentration. Specifically, human TEAD protein from TEAD4(217-434) was cloned into an overexpression vector, expressed as an N-terminal HIS-TEV-Avi-tagged fusion protein in E coli, and subsequently purified, then protein was chemically depalmitoylated & biotinylated. The assay was performed in 384-well LV plates (384-well black, medium binding, PS, HIBASE, GREINER #784076) and run in the presence and absence of the compound of interest. Each well of 5 μL assay mixture contained 10 mM Tris-HCl (pH 7.5), 100 mM NaCl, 0.05 mM EDTA, 1 mM TECP, 1% DMSO, 0.03% Pluronic acid F127, 20 nM dePal Avi TEAD4 (217-434)-depalmitoylated & biotinylated protein, 0.8 nM Streptavidin Terbium cryptate (CisBio #610SATLB), 625 nM FAM labelled Probe A. Reactions were incubated at 25° C. for 120 min before reading on a PHERASTAR FSX Plate Reader (337 520 490 HTRF module required) (Supplier BMP).
The data file from the PHERAstar FSX contains both the acceptor (520 nm) and donor channels (490 nm) (“Channel A”=acceptor channel (520 nm), “Channel B”=donor channel (490 nm)). The ratio of the donor and acceptor (Channel A/Channel B) is calculated within Genedata Assay Analyzer.
Probe A is 3′,6′-dihydroxy-3-oxo-N-{8-[2-(5-{2-[4-(trifluoromethyl)anilino]phenyl}-2H-tetrazol-2-yl)acetamido]octyl}-3H-spiro[[2]benzofuran-1,9′-xanthene]-5-carboxamide;

Series [2] can be described thus: Solubility (thermodynamic, shake-flask). In kind it is physicochemical. The following applies: thermodynamic from solid; aqueous phosphate buffer (pH 7.4), 24 hours at 25° C. Here is the method:
The thermodynamic solubility of a research compound is measured under standard conditions. It is a shake-flask approach that uses 10 mM DMSO solutions which are supplied from the Compound Managements liquid store and is a high throughput method. The dried compounds are equilibrated in an aqueous phosphate buffer (pH 7.4) for 24 hours at 25° C., the portion with the dissolved compound is then separated from the remains. The solutions are analyzed and quantified using UPLC/MS/MS, QC-samples are incorporated in each assay-run to ensure the quality of the assay.

Sequence of TEAD4(217-434) (Q15561 217-434): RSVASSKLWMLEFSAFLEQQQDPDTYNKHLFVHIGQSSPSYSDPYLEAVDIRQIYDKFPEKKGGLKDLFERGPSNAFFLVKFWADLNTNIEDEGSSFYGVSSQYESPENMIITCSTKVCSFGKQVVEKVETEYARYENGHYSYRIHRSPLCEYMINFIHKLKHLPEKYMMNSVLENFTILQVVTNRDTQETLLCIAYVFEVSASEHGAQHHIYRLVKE

With `C=CC(=O)N1CC[C@@H](Nc2ncc(-c3ccc(C(F)(F)F)cn3)c3ncccc23)C1` [Comparative Example A, (R)-1-(3-((8-(5-(trifluoromethyl)pyridin-2-yl)-1,6-naphthyridin-5-yl)amino)pyrrolidin-1-yl)prop-2-en-1-one, reference compound], the results for the IC50 (in the series with MCF7-Tead cell line; in series [1]) were 592 nM and above 31.7 µM, respectively.

`C=CC(=O)N1C[C@H](F)[C@H](Nc2ncc(-c3ccc(C(F)(F)F)cc3)c3ncccc23)C1` [Example 44, 1-((3S,4R)-3-fluoro-4-((8-(4-(trifluoromethyl)phenyl)-1,6-naphthyridin-5-yl)amino)pyrrolidin-1-yl)prop-2-en-1-one]: the half-maximal inhibitory concentration (IC50) in the series on MCF7-Tead cell line is 22 nM; against TEAD4(217-434) it was 16 nM; in series [1] it was 18 µM. This molecule also returned a solubility at 24 h in series [2] of 3 µM (≈ 1.29 µg/mL).

Consider `C=CC(=O)N1C[C@H](Nc2nnc(-c3ccc(C(F)(F)F)cc3)c3ccccc23)[C@@H](C(N)=O)C1` (single isomer, unassigned; enantiomer 1) [Example 31, enantiomer 1 of trans-1-acryloyl-4-((4-(4-(trifluoromethyl)phenyl)phthalazin-1-yl)amino)pyrrolidine-3-carboxamide], for which the concentration for half-maximal inhibition (IC50) in the series with MCF7-Tead cell line came to 58 nM; on TEAD4(217-434), 73 nM; in series [1], 31.1 µM. The same molecule had a solubility at 24 h in series [2] of 534 µM (≈ 243 µg/mL).

`C=CC(=O)N1C[C@H](O)[C@H](Nc2ncc(-c3ccc(C(F)(F)F)cn3)c3ncccc23)C1` [Example 35, 1-((3S,4R)-3-hydroxy-4-((8-(5-(trifluoromethyl)pyridin-2-yl)-1,6-naphthyridin-5-yl)amino)pyrrolidin-1-yl)prop-2-en-1-one]: the IC50 with MCF7-Tead cell line is 34 nM; at TEAD4(217-434), 79 nM; in series [1] it was above 31.7 µM. In addition, the solubility at 24 h in series [2] was determined as 801 µM (≈ 344 µg/mL).

For `C=CC(=O)N1C[C@H](F)[C@H](Nc2nnc(-c3ccc(C(F)(F)F)cc3)c3cccnc23)C1` [Example 2, 1-((3S,4R)-3-fluoro-4-((5-(4-(trifluoromethyl)phenyl)pyrido[2,3-d]pyridazin-8-yl)amino)pyrrolidin-1-yl)prop-2-en-1-one], the values for the IC50 (in the series on MCF7-Tead cell line; against TEAD4(217-434); in series [1]) were 22 nM, 56 nM and 12.9 µM, respectively. The molecule also came in with a solubility at 24 h in series [2] of 188 µM (≈ 81.1 µg/mL).

With `C=CC(=O)N1C[C@H](C#N)[C@H](Nc2nnc(-c3ccc(C(F)(F)F)cc3)c3ccccc23)C1` (single isomer, unassigned; enantiomer 1) [Example 29, enantiomer 1 of cis-1-acryloyl-4-((4-(4-(trifluoromethyl)phenyl)phthalazin-1-yl)amino)pyrrolidine-3-carbonitrile], the IC50 amounted to 94 nM in the series with MCF7-Tead cell line and 22.2 µM in series [1]. This molecule also returned a solubility at 24 h in series [2] of 7 µM (≈ 3.06 µg/mL).

As to `C=CC(=O)N1C[C@H](O)[C@H](Nc2ncc(-c3ccc(C(F)(F)F)cc3)c3ncccc23)C1` [Example 34, 1-((3S,4R)-3-hydroxy-4-((8-(4-(trifluoromethyl)phenyl)-1,6-naphthyridin-5-yl)amino)pyrrolidin-1-yl)prop-2-en-1-one], the figures for the IC50 (with MCF7-Tead cell line; against TEAD4(217-434); in series [1]) were 9 nM, 17 nM and above 31.7 µM, respectively. Further, the solubility at 24 h in series [2] is 44 µM (≈ 18.9 µg/mL).

With `C=CS(=O)(=O)N1CC[C@H](Nc2nnc(-c3ccc(C(F)(F)F)cc3)c3ccccc23)C1` [Example 21, (S)-4-(4-(trifluoromethyl)phenyl)-N-(1-(vinylsulfonyl)pyrrolidin-3-yl)phthalazin-1-amine], the IC50 came to 929 nM with MCF7-Tead cell line, 42 nM against TEAD4(217-434) and 15.1 µM in series [1]. The solubility at 24 h in series [2] came to 34 µM (≈ 15.2 µg/mL).

Take `C=CC(=O)N1C[C@@H](F)[C@H](Nc2nnc(-c3ccc(C(F)(F)F)cc3)c3cccnc23)C1` [Example 4, 1-((3R,4R)-3-fluoro-4-((5-(4-(trifluoromethyl)phenyl)pyrido[2,3-d]pyridazin-8-yl)amino)pyrrolidin-1-yl)prop-2-en-1-one]: the figures for the IC50 (in the series on MCF7-Tead cell line; on TEAD4(217-434); in series [1]) were 192 nM, 410 nM and 26 µM, respectively. Also, the solubility at 24 h in series [2] was 230 µM (≈ 99.2 µg/mL).

As for `C=CC(=O)N1C[C@@H](CN(C)C)[C@H](Nc2nnc(-c3ccc(C(F)(F)F)cc3)c3ccccc23)C1` [Example 46, 1-((3R,4S)-3-((dimethylamino)methyl)-4-((4-(4-(trifluoromethyl)phenyl)phthalazin-1-yl)amino)pyrrolidin-1-yl)prop-2-en-1-one], the figures for the 50% inhibitory concentration (IC50) (in the series with MCF7-Tead cell line; against TEAD4(217-434); in series [1]) were 283 nM, 830 nM and 19.4 µM, respectively.

In the case of `C=CC(=O)N1C[C@H](F)[C@H](Nc2ncc(-c3ccc(C(F)(F)F)cn3)c3ncccc23)C1` [Example 36, 1-((3S,4R)-3-fluoro-4-((8-(5-(trifluoromethyl)pyridin-2-yl)-1,6-naphthyridin-5-yl)amino)pyrrolidin-1-yl)prop-2-en-1-one], the values for the half-inhibitory concentration (IC50) (in the series with MCF7-Tead cell line; in series [1]) were 11 nM and above 31.7 µM, respectively. Also, the solubility at 24 h in series [2] is 82 µM (≈ 35.4 µg/mL).

`C=CC(=O)N1C[C@@H](F)[C@H](Nc2nnc(-c3ccc(C(F)(F)F)cc3)c3ccccc23)C1` [Example 11, 1-((3R,4R)-3-fluoro-4-((4-(4-(trifluoromethyl)phenyl)phthalazin-1-yl)amino)pyrrolidin-1-yl)prop-2-en-1-one]: the IC50 with MCF7-Tead cell line came out at 156 nM; against TEAD4(217-434), 33 nM; in series [1] it was 10.2 µM. The molecule also had a solubility at 24 h in series [2] of 9 µM (≈ 3.87 µg/mL).

As for `C=CC(=O)N1C[C@H](O)[C@H](Nc2nnc(-c3ccc(C(F)(F)F)cc3)c3ccccc23)C1` [Example 12, 1-((3S,4R)-3-hydroxy-4-((4-(4-(trifluoromethyl)phenyl)phthalazin-1-yl)amino)pyrrolidin-1-yl)prop-2-en-1-one], the IC50 is 99 nM with MCF7-Tead cell line, 52 nM against TEAD4(217-434) and 23.5 µM in series [1]. Further, the solubility at 24 h in series [2] stood at 370 µM (≈ 159 µg/mL).

For the molecule `C#CC(=O)N1CC[C@H](Nc2nnc(-c3ccc(C(F)(F)F)cc3)c3ccccc23)C1` [Example 19, (S)-1-(3-((4-(4-(trifluoromethyl)phenyl)phthalazin-1-yl)amino)pyrrolidin-1-yl)prop-2-yn-1-one], the IC50 stood at 515 nM with MCF7-Tead cell line and 0.977 µM in series [1]. The molecule also displayed a solubility at 24 h in series [2] of 38 µM (≈ 15.6 µg/mL).

In the case of `C=CC(=O)N1CC(Nc2nc(-c3ccc(C(F)(F)F)cc3)nc3ccccc23)C1` [Comparative Example B, 1-[3-({2-[4-(trifluoromethyl)phenyl]-4-quinazolinyl}amino)-1-azetidinyl]-2-propen-1-one, reference compound], the IC50 in the series with MCF7-Tead cell line was 161 nM; on TEAD4(217-434) it was 30 nM; in series [1] it was above 31.7 µM. Besides, the solubility at 24 h in series [2] came out at 2 µM (≈ 0.797 µg/mL).

`C=CC(=O)N1C[C@@H](F)[C@H](Nc2nnc(-c3ccc(C(F)(F)F)cc3)c3ncccc23)C1` [Example 3, 1-((3R,4R)-3-fluoro-4-((8-(4-(trifluoromethyl)phenyl)pyrido[2,3-d]pyridazin-5-yl)amino)pyrrolidin-1-yl)prop-2-en-1-one]: the IC50 with MCF7-Tead cell line worked out at 67 nM; against TEAD4(217-434), 93 nM; in series [1], 27.3 µM. Also, in series [2], the solubility at 24 h was 10 µM (≈ 4.31 µg/mL).

The values above are taken from patent publication US20240116926A1, “HETEROAROMATIC COMPOUNDS” (AstraZeneca AB, priority 2022, published 2024).
